The target of one assay is KRAS G13C (Homo sapiens, UniProt P01116+P62937, G13C). Put plainly: Disruption of BRAF RBD interaction with Ras (FRET / MOA assay, with Cyclophilin A). Type of assay: biochemical. The method, boiled down: (§1)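 Measured via TR-FRET after 3 h at 25 °C with compound (30 μM top, threefold serial steps, ten concentrations) plus K-Ras, Cyclophilin A and BRAF RBD, followed by 1.5 h with anti-His europium (10 nM) and anti-GST allophycocyanin (50 nM). Signal loss versus DMSO gave IC50.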
Chain of KRAS G13C (P01116 1-169 isoform P01116-2 G13C): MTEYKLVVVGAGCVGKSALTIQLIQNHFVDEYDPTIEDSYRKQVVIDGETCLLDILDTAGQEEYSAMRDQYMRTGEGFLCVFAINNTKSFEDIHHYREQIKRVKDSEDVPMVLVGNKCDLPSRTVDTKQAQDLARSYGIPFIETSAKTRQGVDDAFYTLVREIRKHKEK
Chain of KRAS G13C (P62937 whole entry): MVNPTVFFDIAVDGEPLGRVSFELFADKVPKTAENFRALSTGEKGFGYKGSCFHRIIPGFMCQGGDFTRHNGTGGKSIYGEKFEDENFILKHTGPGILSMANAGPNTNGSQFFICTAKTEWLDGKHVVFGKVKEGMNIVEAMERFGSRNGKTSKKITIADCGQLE

For the next assay, the target named is NRAS G12C (Homo sapiens, UniProt P01111+P62937, G12C). The assay is described as above. Type of assay: biochemical.
Chain of NRAS G12C (P01111 whole entry G12C): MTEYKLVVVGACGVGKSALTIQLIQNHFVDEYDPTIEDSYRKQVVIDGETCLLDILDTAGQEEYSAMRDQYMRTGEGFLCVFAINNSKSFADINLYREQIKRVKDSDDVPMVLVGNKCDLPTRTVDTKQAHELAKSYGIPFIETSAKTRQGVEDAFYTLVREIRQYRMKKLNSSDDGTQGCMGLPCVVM
Chain of NRAS G12C (P62937 whole entry): as the sequence (P62937 whole entry) above
A further assay has as its target KRAS G12C (Homo sapiens, UniProt P01116+P62937, G12C). The description is as above. Type of assay: biochemical. In a few lines:
as §1

The next assay addresses KRAS G12S (Homo sapiens, UniProt P01116+P62937, G12S). Described as above. Format: biochemical. The method, boiled down:
as §1

The next assay deals with KRAS G12V (Homo sapiens, UniProt P01116+P62937, G12V). Described as above. Type of assay: biochemical. The method, boiled down:
as §1

A further assay addresses KRAS G12D (Homo sapiens, UniProt P01116+P62937, G12D). Described as above. Format: biochemical. The method, boiled down: as §1
The next assay has as its target KRAS G13D (Homo sapiens, UniProt P01116+P62937, G13D). The assay is described as above. Type of assay: biochemical. The method, boiled down:
as §1

The target of the next assay is KRAS WT (Homo sapiens, UniProt P01116+P62937). Described as above. Type of assay: biochemical. In a few lines:
as §1

For a further assay, the system named is NCI-H358 (K-Ras G12C). Put plainly: CellTiter-Glo cell viability assay, 5-day treatment. Type of assay: cell-based. To be noted: Homo sapiens, NCI-H358, 120 h, 5-day treatment; read-out: H358 Cell Viability assay data (K-Ras G12C, IC50). The method, boiled down: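 Luminescence read-out after 5 days of compound exposure, with plates first brought to room temperature for roughly 30 minutes. Values are percent of averaged DMSO wells, fitted by four-parameter logistic regression.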
(In general: In ATP-based viability assays light output follows the ATP content of the culture.)

Another assay addresses KRAS Q61H (Homo sapiens, UniProt P01116+P62937, Q61H). The experiment in a line: Disruption of BRAF RBD interaction with Ras (FRET / MOA assay, with Cyclophilin A). The note with it: KRAS Q61H; read-out: KRAS Q61H FRET data IC50. Type of assay: biochemical. The method, boiled down: (§2)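 TR-FRET in 25 mM HEPES pH 7.3, 100 mM NaCl, 5 mM MgCl2, 0.1% BSA: 25 μM Cyclophilin A, 12.5 nM His6-Ras-GMPPNP, 50 nM GST-BRAF RBD with compound (10-point 3-fold series from 30 μM), 3 h at 25° C. Anti-His Eu/anti-GST APC added, 1.5 h more; IC50 from decreased FRET ratio versus DMSO.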

A further assay addresses NRAS Q61R (Homo sapiens, UniProt P01111+P62937, Q61R). The description is as above. Format: biochemical. To be noted: NRAS Q61R; read-out: NRAS Q61R FRET data IC50. The method, boiled down:
as §2

For a further assay, the target named is NRAS Q61K (Homo sapiens, UniProt P01111+P62937, Q61K). The description is as above. The note with it: NRAS Q61K; read-out: NRAS Q61K FRET data IC50. Format: biochemical. In a few lines: as §2
Chain of NRAS Q61K (P01111 whole entry Q61K): as the sequence (P01111 whole entry G12C) above, with C12G, Q61K counted along it
Chain of NRAS Q61K (P62937 whole entry): as the sequence (P62937 whole entry) above
The next assay concerns the target NRAS WT (Homo sapiens, UniProt P01111+P62937). Described as above. Format: biochemical. The note with it: NRAS WT; read-out: NRAS WT FRET data IC50. The method, boiled down: as §2
The mark [1] stands for this setting: NRAS G12C FRET data IC50, NRAS G12C.
The mark [2] stands for this setting: KRAS G12V FRET data IC50, KRAS G12V.
Where [3] appears, read: KRAS G13D FRET data IC50, KRAS G13D.
The mark [4] stands for this setting: KRAS WT FRET data IC50, KRAS WT.
Where [5] appears, read: read-out: KRAS G13C FRET data, IC50.
[6] abbreviates: NRAS G12C, read-out: NRAS G12C FRET data IC50.
[7] abbreviates: read-out: KRAS G12C FRET data, IC50.
[8] abbreviates: read-out: KRAS G12S FRET data, IC50.
Where [9] appears, read: KRAS G12V, read-out: KRAS G12V FRET data IC50.
The mark [10] stands for this setting: read-out: KRAS G12D FRET data, IC50.
Where [11] appears, read: KRAS G13D, read-out: KRAS G13D FRET data IC50.
Where [12] appears, read: KRAS WT, read-out: KRAS WT FRET data IC50.

Like-named read-outs stand apart in the source and are kept apart here.

Chain of KRAS G13D (P01116 1-169 isoform P01116-2 G13D limits assumed): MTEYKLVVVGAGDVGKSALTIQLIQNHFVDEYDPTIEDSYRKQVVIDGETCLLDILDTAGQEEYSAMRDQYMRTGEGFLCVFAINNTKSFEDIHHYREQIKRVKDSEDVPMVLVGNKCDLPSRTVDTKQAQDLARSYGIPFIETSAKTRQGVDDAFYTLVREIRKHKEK
Chain of KRAS G13D (P62937 whole entry): as the sequence (P62937 whole entry) above
Chain of KRAS WT (P01116 1-169 isoform P01116-2 limits assumed): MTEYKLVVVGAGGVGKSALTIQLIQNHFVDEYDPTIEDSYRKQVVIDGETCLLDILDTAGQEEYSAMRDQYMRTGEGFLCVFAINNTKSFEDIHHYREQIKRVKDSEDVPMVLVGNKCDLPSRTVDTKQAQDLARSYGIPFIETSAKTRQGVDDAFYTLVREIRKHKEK
Chain of KRAS WT (P62937 whole entry): as the sequence (P62937 whole entry) above
Chain of NRAS WT (P01111 whole entry): as the sequence (P01111 whole entry G12C) above, with C12G counted along it
Chain of NRAS WT (P62937 whole entry): as the sequence (P62937 whole entry) above
Chain of KRAS G12C (P01116 1-169 isoform P01116-2 G12C): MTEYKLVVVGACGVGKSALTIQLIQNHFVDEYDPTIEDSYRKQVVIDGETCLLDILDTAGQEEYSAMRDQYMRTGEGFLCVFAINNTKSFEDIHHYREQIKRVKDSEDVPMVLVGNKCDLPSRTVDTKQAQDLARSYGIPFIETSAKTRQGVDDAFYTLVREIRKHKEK
Chain of KRAS G12C (P62937 whole entry): as the sequence (P62937 whole entry) above
Chain of KRAS G12S (P01116 1-169 isoform P01116-2 G12S limits assumed): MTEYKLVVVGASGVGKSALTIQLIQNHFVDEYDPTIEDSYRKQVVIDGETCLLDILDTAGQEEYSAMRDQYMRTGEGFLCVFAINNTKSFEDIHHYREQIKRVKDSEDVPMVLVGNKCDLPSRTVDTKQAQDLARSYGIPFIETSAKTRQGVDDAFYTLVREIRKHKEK
Chain of KRAS G12S (P62937 whole entry): as the sequence (P62937 whole entry) above
Chain of KRAS Q61H (P01116 1-169 isoform P01116-2 Q61H limits assumed): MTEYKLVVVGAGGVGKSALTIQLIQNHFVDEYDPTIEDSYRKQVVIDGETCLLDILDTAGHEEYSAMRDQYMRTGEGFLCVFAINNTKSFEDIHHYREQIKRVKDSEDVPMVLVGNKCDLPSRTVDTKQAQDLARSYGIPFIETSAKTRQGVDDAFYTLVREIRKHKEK
Chain of KRAS Q61H (P62937 whole entry): as the sequence (P62937 whole entry) above
Chain of KRAS G12V (P01116 1-169 isoform P01116-2 G12V limits assumed): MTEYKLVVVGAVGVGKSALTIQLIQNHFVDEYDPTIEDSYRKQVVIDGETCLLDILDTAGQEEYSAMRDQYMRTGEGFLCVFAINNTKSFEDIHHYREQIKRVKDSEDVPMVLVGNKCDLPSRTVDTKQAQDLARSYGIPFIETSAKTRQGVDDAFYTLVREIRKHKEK
Chain of KRAS G12V (P62937 whole entry): as the sequence (P62937 whole entry) above
Chain of NRAS Q61R (P01111 whole entry Q61R): as the sequence (P01111 whole entry G12C) above, with C12G, Q61R counted along it
Chain of NRAS Q61R (P62937 whole entry): as the sequence (P62937 whole entry) above
Chain of KRAS G12D (P01116 1-169 isoform P01116-2 G12D limits assumed): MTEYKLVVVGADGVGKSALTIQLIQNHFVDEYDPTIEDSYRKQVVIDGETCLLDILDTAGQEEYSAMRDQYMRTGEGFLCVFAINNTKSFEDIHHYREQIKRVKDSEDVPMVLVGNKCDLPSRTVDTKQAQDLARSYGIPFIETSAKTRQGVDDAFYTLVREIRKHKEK
Chain of KRAS G12D (P62937 whole entry): as the sequence (P62937 whole entry) above

One may read the IC50 as the concentration needed to halve the response being measured. On to `CCn1c(-c2cnccc2COC)c2c3cc(ccc31)-c1cc(O)cc(c1)C[C@H](NC(=O)[C@H](C(C)C)N(C)C(=O)[C@H]1CCN(S(=O)(=O)N3CC(O)C3)C1)C(=O)N1CCC[C@H](N1)C(=O)OCC(C)(C)C2` [Example A37, (2S)—N-[(8S,14S)-22-ethyl-4-hydroxy-21-[4-(methoxymethyl)pyridin-3-yl]-18,18-dimethyl-9,15-dioxo-16-oxa-10,22,28-triazapentacyclo[18.5.2.1^2,6.1^10,14.0^23,27]nonacosa-1(26),2,4,6(29),20,23(27),24-heptaen-8-yl]-2-{1-[(3S)-1-[(3-hydroxyazetidin-1-yl)sulfonyl]pyrrolidin-3-yl]-N-methylformamido}-3-methylbutanamide], for which the IC50 on KRAS G13C (KRAS G13C FRET data, IC50) was 100 to 1000 nM; against NRAS G12C (setting [1]), 100 to 1000 nM; against KRAS G12C (KRAS G12C FRET data, IC50), 100 to 1000 nM; on KRAS G12S (KRAS G12S FRET data, IC50), 100 to 1000 nM; against KRAS G12V (setting [2]) it was 100 to 1000 nM; against KRAS G12D (KRAS G12D FRET data, IC50) it was more than 10000 nM. The IC50 at KRAS G13D (setting [3]) lay within 1000 to 10000 nM; at KRAS WT (setting [4]) it was 100 to 1000 nM; in the assay with NCI-H358 (K-Ras G12C), 1000 to 10000 nM; on KRAS Q61H it was 10 to 100 nM; on NRAS Q61R, 1000 to 10000 nM; at NRAS Q61K, 1000 to 10000 nM. Besides, the IC50 on NRAS WT fell in the range of 100 to 1000 nM.

Turning to `CCn1c(-c2cnccc2COC)c2c3cc(ccc31)-c1cc(O)cc(c1)C[C@H](NC(=O)[C@H](C(C)C)N(C)C(=O)c1ncco1)C(=O)N1CCC[C@H](N1)C(=O)OCC(C)(C)C2` [Example A38], the concentration for half-maximal inhibition (IC50) at KRAS G13C (setting [5]) lay within 1000 to 10000 nM; on NRAS G12C (setting [6]), 100 to 1000 nM; on KRAS G12C (setting [7]) it was 100 to 1000 nM; at KRAS G12S (setting [8]) it was 100 to 1000 nM; at KRAS G12V (setting [9]), 100 to 1000 nM; at KRAS G12D (setting [10]), 1000 to 10000 nM. The IC50 on KRAS G13D (setting [11]) lay within 100 to 1000 nM; on KRAS WT (setting [12]) it was 100 to 1000 nM; in the assay with NCI-H358 (K-Ras G12C), 1000 to 10000 nM; on KRAS Q61H, 10 to 100 nM; on NRAS Q61R, 100 to 1000 nM; on NRAS Q61K it was 100 to 1000 nM. The IC50 at NRAS WT was 100 to 1000 nM.

On to `CCn1c(-c2cnccc2COC)c2c3cc(ccc31)-c1cc(O)cc(c1)C[C@H](NC(=O)[C@H](C(C)C)N(C)S(C)(=O)=O)C(=O)N1CCC[C@H](N1)C(=O)OCC(C)(C)C2` [Example A57, (2S)—N-[(8S,14S)-22-ethyl-4-hydroxy-21-[4-(methoxymethyl)pyridin-3-yl]-18,18-dimethyl-9,15-dioxo-16-oxa-10,22,28-triazapentacyclo[18.5.2.1^2,6.1^10,14.0^23,27]nonacosa-1(26),2,4,6(29),20,23(27),24-heptaen-8-yl]-3-methyl-2-(N-methylmethanesulfonamido)butanamide], for which the IC50 against KRAS G13C (KRAS G13C FRET data, IC50) is 1000 to 10000 nM; against NRAS G12C (setting [1]), 1000 to 10000 nM; at KRAS G12C (KRAS G12C FRET data, IC50), 1000 to 10000 nM; at KRAS G12S (KRAS G12S FRET data, IC50), 1000 to 10000 nM; at KRAS G12V (setting [2]), 1000 to 10000 nM; at KRAS G12D (KRAS G12D FRET data, IC50) it was more than 10000 nM. The IC50 lay in the range of 1000 to 10000 nM against KRAS G13D (setting [3]); 1000 to 10000 nM against KRAS WT (setting [4]); 1000 to 10000 nM with NCI-H358 (K-Ras G12C); 100 to 1000 nM at KRAS Q61H; 1000 to 10000 nM on NRAS Q61R; 1000 to 10000 nM at NRAS Q61K. The IC50 at NRAS WT is 1000 to 10000 nM.

As for `CCn1c(-c2cc(N3CCN(C)CC3)cnc2[C@H](C)OC)c2c3cc(ccc31)-c1csc(n1)C[C@H](NC(C)=O)C(=O)N1CCC[C@H](N1)C(=O)OCC(C)(C)C2` [Example A321], the half-maximal inhibitory concentration (IC50) fell in the range of 100 to 1000 nM on KRAS G13C (setting [5]); 10 to 100 nM at NRAS G12C (setting [6]); 10 to 100 nM on KRAS G12C (setting [7]); 100 to 1000 nM at KRAS G12S (setting [8]); 100 to 1000 nM on KRAS G12V (setting [9]); 100 to 1000 nM at KRAS G12D (setting [10]). In addition, the IC50 on KRAS G13D (setting [11]), at KRAS WT (setting [12]), in the assay on NCI-H358 (K-Ras G12C), on KRAS Q61H, at NRAS Q61R and on NRAS Q61K was 100 to 1000 nM throughout. For the same compound, the IC50 on NRAS WT was in the range of 100 to 1000 nM.

The values above are taken from patent publication US20230233569A1 (Revolution Medicines, Inc., priority 2020, published 2023).
